Where a name gives a salt, the structure may show the parent alone. Read-outs that look alike come from different tables or passages of the source.
Experiments:
SUDHL5 cells [1] = assay: Induction of caspase-3/7 activity (Caspase-Glo 3/7), SUDHL5; assay type: cell-based; settings: EC50, median, SUDHL5, 3 h treatment
In short: (§1)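 DLBCL lines treated with compounds for 3 h at 37 °C in a humidified incubator; caspase-3/7 activity read with Caspase-Glo 3/7 luminescent reagent. Medium-only background subtracted from all values.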

SUDHL10 cells [2] = assay: Induction of cytotoxicity (CellTiter-Glo, 5 h), SUDHL10; settings: SUDHL10, 5 h
Description: Therefore, cytotoxicity assays were run in parallel in SUDHL5 and SUDHL10 cells.
The different cell lines were plated in culture medium (RPMI 1640 [GIBCO #22400-089] supplemented with 10% Fetal Bovine Serum) at a density of 3,300 cells in 30 μL/well in a sterile, solid black, flat bottom, polystyrene, TC-treated 384-well microplate (Corning #3571) using Multidrop Combi Reagent Dispenser. As a control, medium without cells was also added to the plate. Cells were incubated in a humidified incubator at 37° C. overnight. […] Rim wells were excluded. The cells were incubated for 5 h hours in a humidified incubator at 37° C. After this incubation, 30 μL of CellTiter-Glo® Luminescent Cell Viability reagent (Promega, G7573) was added to each well using the Multidrop Combi Reagent Dispenser, followed by 15 min incubation on a shaker at room temperature. Finally, luminescence was read at 0.1 ms, with a gain of 3000 using the PHERAstar FS microplate reader (BMG Labtech).

SUDHL5 cells [3] = assay: Induction of cytotoxicity (CellTiter-Glo, 5 h), SUDHL5; settings: SUDHL5, 5 h
AMO-1 cells = assay: Antiproliferation assay (CellTiter-Glo, 72 h), AMO-1; assay type: cell-based; settings: IC50, median, AMO-1, 72 h, read-out: Antiproli AMO-1 [M] median
In short: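 Cells were incubated with compounds for 72 h at 37°C. Viability was then read by CellTiter-Glo luminescence, and a parallel day 0 plate read the same way gave the time-zero signal.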

SUDHL10 cells [4] = assay: Induction of caspase-3/7 activity (Caspase-Glo 3/7), SUDHL10; assay type: cell-based; settings: EC50, median, SUDHL10, 3 h treatment
In short: as §1

HMC-1-8 cells = assay: Antiproliferation assay (CellTiter-Glo, 72 h), HMC-1-8; assay type: cell-based; settings: IC50, median, HMC-1-8, 72 h, read-out: Antiproli HMC-1-8 [M] median
Description: Assessment of the Anti-Proliferative Effect of Compounds in Different Cell Lines
The impact of compounds on the proliferation of different cell lines was assessed using the CellTiter-Glo® Luminescent Cell Viability reagent from Promega (G7573).
In parallel, cells were plated in a reference (day 0) plate for time zero determination.
Rim wells were excluded. The cells were incubated for 72 h hours in a humidified incubator at 37° C. The day 0 plate was measured by adding 30 μL/well of CTG solution (CellTiter-Glo® Luminescent Cell Viability reagent, Promega G7573) to time zero wells in the reference plate followed by a 10 minutes incubation and luminescence reading at 0.1 ms. using the PHERAstar FS microplate reader (BMG Labtech).
After 72 h incubation, the treated plates were measured in the same way as the day 0 plate mentioned above.

[5] = Homo sapiens, SU-DHL10, 5 h, read-out: Cytotox SUDHL10 [M] (median), IC50, median
[6] = Homo sapiens, SU-DHL-5, 5 h, read-out: Cytotox SUDHL5 [M] (median), IC50, median
[7] = read-out: Cytotox SUDHL5 [M] (median), IC50, median

Compound	IC50 (SUDHL10 cells [2]; [5]) [M]	IC50 (AMO-1 cells; Homo sapiens, AMO1, 72 h) [M]	EC50 (SUDHL10 cells [4]; Homo sapiens, SU-DHL10, 3 h) [nM]	IC50 (HMC-1-8 cells; 72 h) [M]	also measured
Cc1nn(C)c2c1-c1c(Cl)ccc3c(CCCOc4cccc5ccccc45)c(C(=O)O)n(c13)CCCCOC2 (single isomer, unassigned; enantiomer 1) [Example 3, 4-chloro-1,3-dimethyl-7-[3-(naphthalen-1-yloxy)propyl]-1,10,11,12,13,15-hexahydropyrazolo[4′,3′:9,10][1,6]oxazacycloundecino[8,7,6-hi]indole-8-carboxylic acid (Enantiomer 1)]	1.5e-06	2.5e-06	1600	8.3e-06	EC50 (SUDHL5 cells [1]; Homo sapiens, SU-DHL-5, 3 h): 710 nM; IC50 (SUDHL5 cells [3]; [6]): 6.5e-07 M
Cc1c2c(nn1C)COCCC(F)(F)Cn1c(C(=O)O)c(CCCOc3cccc4ccccc34)c3ccc(Cl)c-2c31 [Example 94, 4-chloro-11,11-difluoro-2,3-dimethyl-7-{3-[(naphthalen-1-yl)oxy]propyl}-2,10,11,12,13,15-hexahydropyrazolo[4′,3′:9,10][1,6]oxazacycloundecino[8,7,6-hi]indole-8-carboxylic acid N-ethylethanamine salt]				6.3e-06	EC50 (SUDHL5 cells [1]; listed as 094): 1600 nM; IC50 (SUDHL10 cells [2]; read-out: Cytotox SUDHL10 [M] (median), IC50, median, listed as 094): 4.5e-06 M; IC50 (SUDHL5 cells [3]; read-out: Cytotox SUDHL5 [M] (median), IC50, median, listed as 094): 2.9e-06 M; EC50 (SUDHL10 cells [4]; listed as 094): 3100 nM
Cc1c2c(nn1C)COCC1CCC1Cn1c(C(=O)O)c(CCCOc3cccc4ccccc34)c3ccc(Cl)c-2c31 (single isomer, unassigned) [Example 81, 3-chloro-4,5-dimethyl-15-{3-[(naphthalen-1-yl)oxy]propyl}-5,7,9,9a,10,11,11a,12-octahydrocyclobuta[3,4]pyrazolo[4′,3′:9,10][1,6]oxazacycloundecino[8,7,6-hi]indole-14-carboxylic acid]					EC50 (SUDHL5 cells [1]; listed as 081): 7400 nM; IC50 (SUDHL10 cells [2]; read-out: Cytotox SUDHL10 [M] (median), IC50, median, listed as 081): 8.4e-06 M; IC50 (SUDHL5 cells [3]; read-out: Cytotox SUDHL5 [M] (median), IC50, median, listed as 081): 5.8e-06 M; EC50 (SUDHL10 cells [4]; listed as 081): 6200 nM; IC50 (HMC-1-8 cells; listed as 081): 5.5e-06 M
Cc1c2c(nn1C)COCC1CCC1Cn1c(C(=O)O)c(CCCOc3cccc4ccccc34)c3ccc(Cl)c-2c31 (single isomer, unassigned; enantiomer 2) [Example 79, 3-chloro-4,5-dimethyl-15-{3-[(naphthalen-1-yl)oxy]propyl}-5,7,9,9a,10,11,11a,12-octahydrocyclobuta[3,4]pyrazolo[4′,3′:9,10][1,6]oxazacycloundecino[8,7,6-hi]indole-14-carboxylic acid (Enantiomer 2)]				8.6e-06	EC50 (SUDHL5 cells [1]; listed as 079): 580 nM; IC50 (SUDHL10 cells [2]; read-out: Cytotox SUDHL10 [M] (median), IC50, median, listed as 079): 1.6e-06 M; IC50 (SUDHL5 cells [3]; read-out: Cytotox SUDHL5 [M] (median), IC50, median, listed as 079): 7.7e-07 M; IC50 (AMO-1 cells; listed as 079): 1.7e-06 M; EC50 (SUDHL10 cells [4]; listed as 079): 1400 nM
Cc1c2c(nn1C)CN(C)CCCCn1c(C(=O)O)c(CCCOc3cccc4ccccc34)c3ccc(Cl)c-2c31 (racemic) [Example 11, (rac)-4-chloro-2,3,14-trimethyl-7-[3-(naphthalen-1-yloxy)propyl]-10,11,12,13,14,15-hexahydro-2H-pyrazolo[3′,4′:8,9][1,6]diazacycloundecino[10,11,1-hi]indole-8-carboxylic acid]		7.3e-07		4.2e-06	
CCc1c2c(nn1C)CN(CCCO)CCCCn1c(C(=O)O)c(CCCOc3cccc4cc(F)ccc34)c3ccc(Cl)c-2c31 (racemic) [Example 139, (rac)-4-chloro-3-ethyl-7-{3-[(6-fluoronaphthalen-1-yl)oxy]propyl}-14-(3-hydroxypropyl)-2-methyl-10,11,12,13,14,15-hexahydro-2H-pyrazolo[3′,4′:8,9][1,6]diazacycloundecino[10,11,1-hi]indole-8-carboxylic acid]		4.4e-07		5.7e-06	
CCc1nn(CCN2CCOCC2)c2c1-c1c(Cl)ccc3c(CCCOc4cccc5ccccc45)c(C(=O)O)n(c13)C/C=C\CN(C)C2 (single isomer, unassigned; enantiomer 2) [Example 44, (11Z)-4-chloro-3-ethyl-14-methyl-1-[2-(morpholin-4-yl)ethyl]-7-{3-[(naphthalen-1-yl)oxy]propyl}-10,13,14,15-tetrahydro-1H-pyrazolo[3′,4′:8,9][1,6]diazacycloundecino[10,11,1-hi]indole-8-carboxylic acid-ammonia salt (Enantiomer 2)]				2.1e-06	IC50 (SUDHL5 cells [3]; [7]): 7e-07 M; IC50 (AMO-1 cells): 1.1e-06 M
Cc1c2c(nn1C)COCCC(F)(F)Cn1c(C(=O)O)c(CCCOc3cccc4cc(F)ccc34)c3ccc(Cl)c-2c31 (racemic) [Example 93, (rac)-4-Chloro-11,11-difluoro-7-{3-[(6-fluoronaphthalen-1-yl)oxy]propyl}-2,3-dimethyl-2,10,11,12,13,15-hexahydropyrazolo[4′,3′:9,10][1,6]oxazacycloundecino[8,7,6-hi]indole-8-carboxylic acid]	4.3e-07	1.2e-06	220	4.9e-06	IC50 (SUDHL5 cells [3]; [6]): 3.5e-07 M
CCc1nn(C)c2c1-c1c(Cl)ccc3c(CCCOc4cccc5cc(F)ccc45)c(C(=O)O)n(c13)CCCCOC2 (single isomer, unassigned; enantiomer 1) [Example 34, (+)-4-chloro-3-ethyl-7-{3-[(6-fluoronaphthalen-1-yl)oxy]propyl}-1-methyl-1,10,11,12,13,15-hexahydropyrazolo[4′,3′:9,10][1,6]oxazacycloundecino[8,7,6-hi]indole-8-carboxylic acid (Enantiomer 1)]		1.4e-06	930	2e-06	
Cc1c2c(nn1CCCN1CCN(C)CC1)COCCCCn1c(C(=O)O)c(CCCOc3cccc4ccccc34)c3ccc(Cl)c-2c31 (single isomer, unassigned; enantiomer 2) [Example 50, (−)-4-chloro-3-methyl-2-[3-(4-methylpiperazin-1-yl)propyl]-7-{3-[(naphthalen-1-yl)oxy]propyl}-2,10,11,12,13,15-hexahydropyrazolo[4′,3′:9,10][1,6]oxazacycloundecino[8,7,6-hi]indole-8-carboxylic acid (Enantiomer 2)]				3.1e-06	EC50 (SUDHL5 cells [1]): 360 nM; IC50 (SUDHL5 cells [3]; [7]): 4.4e-07 M; IC50 (AMO-1 cells): 1.3e-06 M
Cc1c2c(nn1C)COCCn1c(C(=O)O)c(CCCOc3cccc4ccccc34)c3ccc(Cl)c-2c31 (single isomer, unassigned) [Example 88, 11-chloro-9,10-dimethyl-1-{3-[(naphthalen-1-yl)oxy]propyl}-4,5,7,9-tetrahydropyrazolo[4′,3′:7,8][1,4]oxazonino[6,5,4-hi]indole-2-carboxylic acid]	4e-06	6.7e-06	4300	4.5e-06	EC50 (SUDHL5 cells [1]; Homo sapiens, SU-DHL-5, 3 h): 7400 nM
CCc1c2c(nn1C)CN(CCOC)CCCCn1c(C(=O)O)c(CCCOc3cccc4cc(F)ccc34)c3ccc(Cl)c-2c31 (racemic) [Example 131, (rac)-4-chloro-3-ethyl-7-{3-[(6-fluoronaphthalen-1-yl)oxy]propyl}-14-(2-methoxyethyl)-2-methyl-10,11,12,13,14,15-hexahydro-2H-pyrazolo[3′,4′:8,9][1,6]diazacycloundecino[10,11,1-hi]indole-8-carboxylic acid]	1.5e-07		130	1.3e-06	
CCc1c2c(nn1C)COCCCCn1c(C(=O)O)c(CCCOc3cccc4ccccc34)c3ccc(Cl)c-2c31 (single isomer, unassigned; enantiomer 1) [Example 20, 4-chloro-3-ethyl-2-methyl-7-[3-(naphthalen-1-yloxy)propyl]-2,10,11,12,13,15-hexahydropyrazolo[4′,3′:9,10][1,6]oxazacycloundecino[8,7,6-hi]indole-8-carboxylic acid (Enantiomer 1)]	6.9e-07	8.7e-07	390	2.5e-06	

From patent US11478451B1, “Macrocyclic chlorine substituted indole derivatives” (Bayer Aktiengesellschaft, priority 2017, dated 2022)
